How the values were obtained:
BRD9 [1] = target: T1, BRD9 (Homo sapiens, UniProt Q9H8M2); test: BRD9-ligand displacement AlphaScreen; format: binding
T1 construct: A construct of human BRD9 covering residues 134-0245 in the pET28PP vector; made in house; host or cells: E. coli BL21 (DE3)
T1 sequence (Q9H8M2 134-245 limits assumed): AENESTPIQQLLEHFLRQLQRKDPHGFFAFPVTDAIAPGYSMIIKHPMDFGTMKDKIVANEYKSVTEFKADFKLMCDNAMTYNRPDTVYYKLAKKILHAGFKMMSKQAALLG
Method: BRD9 assays were performed with minimal modifications from the manufacturer's protocol (PerkinElmer, USA). All reagents were diluted in 50 mM HEPES, 150 mM NaCl, 0.1% w/v BSA, 0.01% w/v Tween20, pH 7.5. […] Plates were spun down at 150×g, and 100 nL of DMSO compound stock was added from pre-diluted plates by pin transfer using a Janus Workstation (PerkinElmer, USA). Under low light, a 2× suspension of Ni-coated Acceptor Beads and Streptavidin Donor Beads, was then added at 10 ul/well to a final concentration of 5 μg/ml by EL406 automated liquid handler (Biotek, USA).

ATAD2A = target: T2, ATAD2A (Homo sapiens, UniProt Q6PL18); test: BromoScan single-point screen; format: binding; details: percent of protein captured on solid support vs control
T2 construct: utilizing DNA-tagged bromodomain and immobilized ligand attached to solid support
T2 sequence (Q6PL18 980-1092 limits assumed): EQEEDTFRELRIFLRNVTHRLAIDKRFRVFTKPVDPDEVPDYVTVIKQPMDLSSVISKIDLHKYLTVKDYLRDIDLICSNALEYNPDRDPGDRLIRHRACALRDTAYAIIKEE
Source text: (§1) The BromoScan is an assay that measures the engagement of compounds with bromodomain proteins by utilizing DNA-tagged bromodomain and immobilized ligand attached to solid support. In the control test, DNA-tagged bromodomain binds to the ligand and the bromodomain is captured on the solid support. Compounds that compete for the bromodomain binding location on the ligand will prevent the bromodomain from binding, resulting in less protein captured on the solid support.

ATAD2B = target: T3, ATAD2B (Homo sapiens, UniProt Q9ULI0); test: BromoScan single-point screen; format: binding; details: percent of protein captured on solid support vs control
T3 construct: utilizing DNA-tagged bromodomain and immobilized ligand attached to solid support
T3 sequence (Q9ULI0 951-1066 limits assumed): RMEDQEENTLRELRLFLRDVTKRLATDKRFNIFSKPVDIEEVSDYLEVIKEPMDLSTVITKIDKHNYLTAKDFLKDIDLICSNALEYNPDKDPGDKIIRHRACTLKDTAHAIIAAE
Source text: as §1

BAZ^2A = target: T4, BAZ^2A (Homo sapiens, UniProt Q9UIF9); test: BromoScan single-point screen; format: binding; details: percent of protein captured on solid support vs control
T4 construct: utilizing DNA-tagged bromodomain and immobilized ligand attached to solid support
T4 sequence (Q9UIF9 1793-1897 limits assumed): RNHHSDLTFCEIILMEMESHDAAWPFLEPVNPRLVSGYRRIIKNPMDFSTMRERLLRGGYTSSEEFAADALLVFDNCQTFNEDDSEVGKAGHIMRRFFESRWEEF
Source text: as §1

BAZ^2B = target: T5, BAZ^2B (Homo sapiens, UniProt Q9UIF8); test: BromoScan single-point screen; format: binding; details: percent of protein captured on solid support vs control
T5 construct: utilizing DNA-tagged bromodomain and immobilized ligand attached to solid support
T5 sequence (Q9UIF8 2060-2164 limits assumed): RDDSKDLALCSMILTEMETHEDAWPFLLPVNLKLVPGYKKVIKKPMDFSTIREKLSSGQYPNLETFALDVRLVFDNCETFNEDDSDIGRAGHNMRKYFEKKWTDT
Source text: as §1

BRD1 = target: T6, BRD1 (Homo sapiens, UniProt O95696); test: BromoScan single-point screen; format: binding; details: percent of protein captured on solid support vs control
T6 construct: utilizing DNA-tagged bromodomain and immobilized ligand attached to solid support
T6 sequence (O95696 562-666 limits assumed): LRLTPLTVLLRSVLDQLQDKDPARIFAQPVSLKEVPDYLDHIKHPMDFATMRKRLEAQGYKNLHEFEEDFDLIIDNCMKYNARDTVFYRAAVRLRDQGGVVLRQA
Source text: as §1

BRD2(1) = target: T7, BRD2(1) (Homo sapiens, UniProt P25440); test: BromoScan single-point screen; format: binding; details: percent of protein captured on solid support vs control
T7 construct: utilizing DNA-tagged bromodomain and immobilized ligand attached to solid support
T7 sequence (P25440 74-180 limits assumed): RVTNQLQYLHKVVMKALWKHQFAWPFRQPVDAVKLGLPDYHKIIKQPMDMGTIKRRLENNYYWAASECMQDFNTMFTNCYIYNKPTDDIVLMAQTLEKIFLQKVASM
Source text: as §1

BRD3(1) = target: T8, BRD3(1) (Homo sapiens, UniProt Q15059); test: BromoScan single-point screen; format: binding; details: percent of protein captured on solid support vs control
T8 construct: utilizing DNA-tagged bromodomain and immobilized ligand attached to solid support
T8 sequence (Q15059 34-140 limits assumed): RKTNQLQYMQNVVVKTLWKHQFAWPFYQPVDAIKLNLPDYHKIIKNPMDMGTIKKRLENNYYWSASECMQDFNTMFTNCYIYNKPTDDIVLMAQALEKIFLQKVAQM
Source text: as §1

BRD3(2) = target: T9, BRD3(2) (Homo sapiens, UniProt Q15059); test: BromoScan single-point screen; format: binding; details: percent of protein captured on solid support vs control
T9 construct: utilizing DNA-tagged bromodomain and immobilized ligand attached to solid support
T9 sequence (Q15059 306-415 limits assumed): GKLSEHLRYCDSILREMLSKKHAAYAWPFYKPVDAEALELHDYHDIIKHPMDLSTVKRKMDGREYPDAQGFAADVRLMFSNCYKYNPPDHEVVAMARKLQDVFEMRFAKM
Source text: as §1

BRD7 [2] = target: T10, BRD7 (Homo sapiens, UniProt Q9NPI1); test: BromoScan single-point screen; format: binding; details: percent of protein captured on solid support vs control
T10 construct: utilizing DNA-tagged bromodomain and immobilized ligand attached to solid support
Source text: as §1
T10 sequence (Q9NPI1 131-235 limits assumed): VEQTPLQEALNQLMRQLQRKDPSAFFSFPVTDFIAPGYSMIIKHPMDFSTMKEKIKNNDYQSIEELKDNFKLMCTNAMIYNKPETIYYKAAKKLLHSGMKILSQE

BRD9 [3] = target: T11, BRD9 (Homo sapiens, UniProt Q9H8M2); test: BromoScan single-point screen; format: binding; details: percent of protein captured on solid support vs control
T11 construct: utilizing DNA-tagged bromodomain and immobilized ligand attached to solid support
Source text: as §1

BRDT(1) = target: T12, BRDT(1) (Homo sapiens, UniProt Q58F21); test: BromoScan single-point screen; format: binding; details: percent of protein captured on solid support vs control
T12 construct: utilizing DNA-tagged bromodomain and immobilized ligand attached to solid support
Source text: as §1

BRPF1 = target: T13, BRPF1 (Homo sapiens, UniProt P55201); test: BromoScan single-point screen; format: binding; details: percent of protein captured on solid support vs control
T13 construct: utilizing DNA-tagged bromodomain and immobilized ligand attached to solid support
T13 sequence (P55201 628-732 limits assumed): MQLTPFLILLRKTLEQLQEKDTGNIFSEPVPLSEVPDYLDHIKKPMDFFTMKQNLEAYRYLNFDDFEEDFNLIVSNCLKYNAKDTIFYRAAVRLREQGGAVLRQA
Source text: as §1

BRPF3 = target: T14, BRPF3 (Homo sapiens, UniProt Q9ULD4); test: BromoScan single-point screen; format: binding; details: percent of protein captured on solid support vs control
T14 construct: utilizing DNA-tagged bromodomain and immobilized ligand attached to solid support
T14 sequence (Q9ULD4 589-693 limits assumed): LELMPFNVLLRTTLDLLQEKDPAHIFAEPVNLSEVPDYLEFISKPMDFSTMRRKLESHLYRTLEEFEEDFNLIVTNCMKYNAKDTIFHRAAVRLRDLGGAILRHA
Source text: as §1

CECR2 = target: T15, CECR2 (Homo sapiens, UniProt Q9BXF3); test: BromoScan single-point screen; format: binding; details: percent of protein captured on solid support vs control
T15 construct: utilizing DNA-tagged bromodomain and immobilized ligand attached to solid support
T15 sequence (Q9BXF3 434-538 limits assumed): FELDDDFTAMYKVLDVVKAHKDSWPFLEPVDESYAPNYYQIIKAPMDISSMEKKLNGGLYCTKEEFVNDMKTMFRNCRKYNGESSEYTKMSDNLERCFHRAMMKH
Source text: as §1

EP300 = target: T16, EP300 (Homo sapiens, UniProt Q09472); test: BromoScan single-point screen; format: binding; details: percent of protein captured on solid support vs control
T16 construct: utilizing DNA-tagged bromodomain and immobilized ligand attached to solid support
T16 sequence (Q09472 1049-1156 limits assumed): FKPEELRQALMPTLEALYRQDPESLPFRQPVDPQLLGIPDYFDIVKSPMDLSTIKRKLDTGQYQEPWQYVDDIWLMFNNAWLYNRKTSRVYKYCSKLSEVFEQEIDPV
Source text: as §1

FALZ = target: T17, FALZ (Homo sapiens, UniProt Q12830); test: BromoScan single-point screen; format: binding; details: percent of protein captured on solid support vs control
T17 construct: utilizing DNA-tagged bromodomain and immobilized ligand attached to solid support
Source text: as §1

GCN5L2 = target: T18, GCN5L2 (Homo sapiens, UniProt Q92830); test: BromoScan single-point screen; format: binding; details: percent of protein captured on solid support vs control
T18 construct: utilizing DNA-tagged bromodomain and immobilized ligand attached to solid support
T18 sequence (Q92830 728-832 limits assumed): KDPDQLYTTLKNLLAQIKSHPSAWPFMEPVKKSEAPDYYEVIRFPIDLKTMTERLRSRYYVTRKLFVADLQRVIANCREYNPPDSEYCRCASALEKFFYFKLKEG
Source text: as §1

PBRM1(2) = target: T19, PBRM1(2) (Homo sapiens, UniProt Q86U86); test: BromoScan single-point screen; format: binding; details: percent of protein captured on solid support vs control
T19 construct: utilizing DNA-tagged bromodomain and immobilized ligand attached to solid support
T19 sequence (Q86U86 177-287 limits assumed): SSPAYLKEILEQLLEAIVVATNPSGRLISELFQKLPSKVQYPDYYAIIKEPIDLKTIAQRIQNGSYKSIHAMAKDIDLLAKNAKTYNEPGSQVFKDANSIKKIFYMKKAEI
Source text: as §1

PBRM1(5) = target: T20, PBRM1(5) (Homo sapiens, UniProt Q86U86); test: BromoScan single-point screen; format: binding; details: percent of protein captured on solid support vs control
T20 construct: utilizing DNA-tagged bromodomain and immobilized ligand attached to solid support
T20 sequence (Q86U86 653-763 limits assumed): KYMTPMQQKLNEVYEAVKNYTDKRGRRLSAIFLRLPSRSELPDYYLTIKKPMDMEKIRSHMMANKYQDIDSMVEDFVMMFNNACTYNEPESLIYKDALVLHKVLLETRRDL
Source text: as §1

SMARCA2 = target: T21, SMARCA2 (Homo sapiens, UniProt P51531); test: BromoScan single-point screen; format: binding; details: percent of protein captured on solid support vs control
T21 construct: utilizing DNA-tagged bromodomain and immobilized ligand attached to solid support
T21 sequence (P51531 1378-1506 limits assumed): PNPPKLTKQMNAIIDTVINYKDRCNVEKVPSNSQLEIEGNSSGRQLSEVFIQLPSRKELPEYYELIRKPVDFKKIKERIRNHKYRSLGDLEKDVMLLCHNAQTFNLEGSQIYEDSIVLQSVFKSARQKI
Source text: as §1

TAF1(2) = target: T22, TAF1(2) (Homo sapiens, UniProt P21675); test: BromoScan single-point screen; format: binding; details: percent of protein captured on solid support vs control
T22 construct: utilizing DNA-tagged bromodomain and immobilized ligand attached to solid support
T22 sequence (P21675 1519-1628 limits assumed): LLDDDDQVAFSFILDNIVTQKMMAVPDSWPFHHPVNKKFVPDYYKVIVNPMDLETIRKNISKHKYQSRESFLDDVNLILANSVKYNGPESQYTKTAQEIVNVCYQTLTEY
Source text: as §1

TAF1L(2) = target: T23, TAF1L(2) (Homo sapiens, UniProt Q8IZX4); test: BromoScan single-point screen; format: binding; details: percent of protein captured on solid support vs control
T23 construct: utilizing DNA-tagged bromodomain and immobilized ligand attached to solid support
T23 sequence (Q8IZX4 1517-1626 limits assumed): as the sequence (P21675 1519-1628 limits assumed) above, with V46M, M51V, V102I, L107I counted along it
Source text: as §1

TRIM24 (PHD, Bromo.) = target: T24, TRIM24 (PHD, Bromo.) (Homo sapiens, UniProt O15164); test: BromoScan single-point screen; format: binding; details: percent of protein captured on solid support vs control
T24 construct: utilizing DNA-tagged bromodomain and immobilized ligand attached to solid support
T24 sequence (O15164 824-1006 limits assumed): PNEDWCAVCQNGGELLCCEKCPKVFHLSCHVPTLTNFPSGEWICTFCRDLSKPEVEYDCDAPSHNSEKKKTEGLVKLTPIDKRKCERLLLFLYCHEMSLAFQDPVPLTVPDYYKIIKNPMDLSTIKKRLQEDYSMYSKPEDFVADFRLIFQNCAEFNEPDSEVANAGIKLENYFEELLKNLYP
Source text: as §1

WDR9(2) = target: T25, WDR9(2) (Homo sapiens, UniProt Q9NSI6); test: BromoScan single-point screen; format: binding; details: percent of protein captured on solid support vs control
T25 construct: utilizing DNA-tagged bromodomain and immobilized ligand attached to solid support
T25 sequence (Q9NSI6 1313-1418 limits assumed): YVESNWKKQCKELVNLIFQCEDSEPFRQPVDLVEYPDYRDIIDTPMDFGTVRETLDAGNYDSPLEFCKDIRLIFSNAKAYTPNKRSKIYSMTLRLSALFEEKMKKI
Source text: as §1

BRD4 = BRD4 (Homo sapiens, UniProt O60885); test: BRD4 immunoblot in MOLM-13; details: MOLM-13, 4 hour treatment
Method: In additional experiments, cells were washed with PBS, before being lysed in RIPA buffer supplemented with 1×HALT™ protease inhibitor cocktail (Thermo Scientific) for 10 min on ice, followed by low-amplitude sonication for 10 seconds at 4° C. (Q125, QSonica, USA). In soluble material was removed by centrifugation at 20,000×g for 20 min before protein content was quantified by BCA assay (Pierce). […] Blots were imaged using fluorescence-labeled secondary antibodies (LI-COR) on the OdysseyCLxImager (LI-COR).

BRD7 [4] = target: BRD7 (Homo sapiens, UniProt Q9NPI1); test: BRD7 immunoblot in MOLM-13; details: MOLM-13, 4 hour treatment
Target sequence in this assay (Q9NPI1 whole entry): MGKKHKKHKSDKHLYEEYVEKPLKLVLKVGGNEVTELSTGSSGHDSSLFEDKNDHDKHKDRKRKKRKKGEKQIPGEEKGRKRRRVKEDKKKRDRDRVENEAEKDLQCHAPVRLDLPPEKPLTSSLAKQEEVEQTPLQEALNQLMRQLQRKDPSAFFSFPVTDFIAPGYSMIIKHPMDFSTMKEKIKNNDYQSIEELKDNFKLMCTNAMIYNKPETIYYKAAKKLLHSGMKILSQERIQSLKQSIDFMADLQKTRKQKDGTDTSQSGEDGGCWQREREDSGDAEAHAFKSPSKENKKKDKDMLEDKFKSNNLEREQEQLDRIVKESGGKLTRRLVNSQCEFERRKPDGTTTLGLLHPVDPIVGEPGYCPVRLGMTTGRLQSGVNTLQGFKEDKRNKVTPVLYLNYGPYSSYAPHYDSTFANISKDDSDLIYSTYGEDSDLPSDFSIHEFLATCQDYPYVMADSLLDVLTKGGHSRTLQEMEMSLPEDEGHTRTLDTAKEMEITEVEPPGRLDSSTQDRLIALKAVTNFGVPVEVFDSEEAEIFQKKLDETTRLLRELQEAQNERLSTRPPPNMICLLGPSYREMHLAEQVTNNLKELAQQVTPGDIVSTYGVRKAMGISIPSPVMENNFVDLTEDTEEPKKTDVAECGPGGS
Method: In additional experiments, cells were washed with PBS, before being lysed in RIPA buffer supplemented with 1×HALT™ protease inhibitor cocktail (Thermo Scientific) for 10 min on ice, followed by low-amplitude sonication for 10 seconds at 4° C. […] In soluble material was removed by centrifugation at 20,000×g for 20 min before protein content was quantified by BCA assay (Pierce). […] Blots were imaged using fluorescence-labeled secondary antibodies (LI-COR) on the OdysseyCLxImager (LI-COR).

[5] = system: MM.1S multiple myeloma line; test: ATPlite viability assay, MM.1S; details: 72 hour treatment, in words
Method: (§2) 500 cells/well were plated at a volume of 40 μL/well in white tissue culture treated 384 well assay plates (Thermo Scientific) before DMSO compound stock was added from pre-diluted plates by pin transfer using a Janus Workstation (PerkinElmer, USA). […] Assay plates were allowed to equilibrate to RT for 30 min before reconstituted ATPlite 1 Step reagent (Perkin Elmer) was dispensed at 1:1 volume/well by EL406 automated liquid handler (Biotek, USA).

MOLM-13 cell line = test: ATPlite viability assay, MOLM-13; details: MOLM-13, 72 hours; in words
Method: as §2

BRD4(1) [6] = target: T26, BRD4(1) (Homo sapiens, UniProt O60885); test: BromoScan single-point screen; format: binding; set-up: utilizing DNA-tagged bromodomain and immobilized ligand attached to solid support; details: percent of protein captured on solid support vs control
Source text: as §1

BRD4(1) [7] = target: T26, BRD4(1); test: BRD4(1) ligand-displacement AlphaScreen; format: binding; set-up: substituting protein and biotin-probe components for BRD4(1) protein at 20 nM final; His tag (inferred from Ni-coated acceptor beads)

## COc1cc(-c2cn(C)c(=O)c3cc(C(=N)NC4CCS(=O)(=O)CC4)sc23)ccc1OCC(=O)NCCCCCCCCNc1cccc2c1CN(C1CCC(=O)NC1=O)C2=O (centres unmarked) [Compound I-17]
BRD9 [1]
  IC50: 12.3 nM
ATAD2A
  % Ctrl @ 1 μM: 100 % Ctrl
ATAD2B
  % Ctrl @ 1 μM: 60 % Ctrl
BAZ^2A
  % Ctrl @ 1 μM: 42 % Ctrl
BAZ^2B
  % Ctrl @ 1 μM: 74 % Ctrl
BRD1
  % Ctrl @ 1 μM: 42 % Ctrl
BRD2(1)
  % Ctrl @ 1 μM: 4 % Ctrl
BRD3(1)
  % Ctrl @ 1 μM: 5 % Ctrl
BRD3(2)
  % Ctrl @ 1 μM: 19 % Ctrl
BRD7 [2]
  % Ctrl @ 1 μM: 0 % Ctrl
BRD9 [3]
  % Ctrl @ 1 μM: 0.25 % Ctrl
BRDT(1)
  % Ctrl @ 1 μM: 18 % Ctrl
BRPF1
  % Ctrl @ 1 μM: 7.6 % Ctrl
BRPF3
  % Ctrl @ 1 μM: 85 % Ctrl
CECR2
  % Ctrl @ 1 μM: 0.15 % Ctrl
EP300
  % Ctrl @ 1 μM: 37 % Ctrl
FALZ
  % Ctrl @ 1 μM: 60 % Ctrl
GCN5L2
  % Ctrl @ 1 μM: 62 % Ctrl
PBRM1(2)
  % Ctrl @ 1 μM: 68 % Ctrl
PBRM1(5)
  % Ctrl @ 1 μM: 71 % Ctrl
SMARCA2
  % Ctrl @ 1 μM: 68 % Ctrl
TAF1(2)
  % Ctrl @ 1 μM: 19 % Ctrl
TAF1L(2)
  % Ctrl @ 1 μM: 54 % Ctrl
TRIM24 (PHD, Bromo.)
  % Ctrl @ 1 μM: 84 % Ctrl
WDR9(2)
  % Ctrl @ 1 μM: 83 % Ctrl
BRD4
  BRD4 degradation (immunoblot): Off target degradation of BRD4, observed at high concentrations
BRD7 [4]
  BRD7 degradation (immunoblot): degradation was observed
[5]
  efficacy on viability: comparable efficacy
MOLM-13 cell line
  half-maximal anti-proliferative concentration: low nanomolar
  maximal efficacy on cell proliferation: significantly exceeded that of the more selective I-25
BRD4(1) [6]
  % Ctrl @ 1 μM: 1.8 % Ctrl
BRD4(1) [7]
  IC50: 1710 nM

From patent US11285218B2, “Degradation of bromodomain-containing protein 9 (BRD9) by conjugation of BRD9 inhibitors with E3 ligase ligand and methods of use” (Dana-Farber Cancer Institute, Inc., priority 2016, dated 2022)
